Experimental data published in ChEMBL document CHEMBL5046255, “Design and synthesis of dual inhibitors targeting snail and histone deacetylase for the treatment of solid tumour cancer” (Eur J Med Chem, 2022).
pIC50, pKd: −log10 of the molar value. Activity calls are given as the source filed them. The calls are words filed in the database; no cut-off is given here.

Experiments:
CCRF-CEM = assay: Antiproliferative activity against human CCRF-CEM cells assessed as growth inhibition incubated for 72 hrs by luminescence assay; type: functional
EKVX = assay: Antiproliferative activity against human EKVX cells assessed as growth inhibition incubated for 72 hrs by luminescence assay; type: functional
HCT-15 = assay: Antiproliferative activity against human HCT-15 cells assessed as growth inhibition incubated for 72 hrs by luminescence assay; type: functional
UACC-257 = assay: Antiproliferative activity against human UACC-257 cells assessed as growth inhibition incubated for 72 hrs by luminescence assay; type: functional
SF-539 = assay: Antiproliferative activity against human SF-539 cells assessed as growth inhibition incubated for 72 hrs by luminescence assay; type: functional
SK-MEL-5 = assay: Antiproliferative activity against human SK-MEL-5 cells assessed as growth inhibition incubated for 72 hrs by luminescence assay; type: functional
[1] = Oral bioavailability in Sprague-Dawley rat at 10 mg/kg measured up to 24 hrs by LC-MS/MS analysis; type: ADME, organism-based; conditions: in vivo
[2] = Metabolic stability in monkey plasma assessed as half life at 100 uM measured upto 120 mins by LC-MS/MS analysis; type: ADME, cell-free, Macaca mulatta; conditions: rhesus monkey
NCI-H226 = assay: Antiproliferative activity against human NCI-H226 cells assessed as growth inhibition incubated for 72 hrs by luminescence assay; type: functional
[3] = Binding affinity to SNAI1 (unknown origin) assessed as dissociation constant; design: species or system Homo sapiens
NCI/ADR-RES = assay: Antiproliferative activity against human NCI/ADR-RES cells assessed as growth inhibition incubated for 72 hrs by luminescence assay; type: functional
[4] = target: Histone deacetylase (Homo sapiens) (UniProt Q13547+O15379+Q9UBN7+Q92769+Q9UQL6+Q8WUI4+Q9BY41+Q96DB2+P56524+Q9UKV0+Q969S8); assay: Inhibition of HDAC in human HCT-116 cells assessed as increase in Ac-H4 expression at 50 nM measured after 24 hrs by western blot analysis; type: cell-based
SN12C = assay: Antiproliferative activity against human SN12C cells assessed as growth inhibition incubated for 72 hrs by luminescence assay; type: functional
SNB-19 = assay: Antiproliferative activity against human SNB-19 cells assessed as growth inhibition incubated for 72 hrs by luminescence assay; type: functional
[5] = Clearance in Sprague-Dawley rat at 1 mg/kg, iv measured up to 24 hrs by LC-MS/MS analysis; type: ADME, organism-based; conditions: in vivo
MOLT-4 = assay: Antiproliferative activity against human MOLT-4 cells assessed as growth inhibition incubated for 72 hrs by luminescence assay; type: functional
SF-295 = assay: Antiproliferative activity against human SF-295 cells assessed as growth inhibition incubated for 72 hrs by luminescence assay; type: functional
SR = assay: Antiproliferative activity against human SR cells assessed as growth inhibition incubated for 72 hrs by luminescence assay; type: functional
[6] = AUC (0 to t) in Sprague-Dawley rat at 10 mg/kg, po measured up to 24 hrs by LC-MS/MS analysis; type: ADME, organism-based; design: route oral, dose 10 mg/kg, time <=24; conditions: in vivo
TK-10 = assay: Antiproliferative activity against human TK-10 cells assessed as growth inhibition incubated for 72 hrs by luminescence assay; type: functional
DU-145 = assay: Antiproliferative activity against human DU-145 cells assessed as growth inhibition incubated for 72 hrs by luminescence assay; type: functional
HL-60 = assay: Antiproliferative activity against human HL-60 cells assessed as growth inhibition incubated for 72 hrs by luminescence assay; type: functional
Malme-3M = assay: Antiproliferative activity against human Malme-3M cells assessed as growth inhibition incubated for 72 hrs by luminescence assay; type: functional
KM12 = assay: Antiproliferative activity against human KM12 cells assessed as growth inhibition incubated for 72 hrs by luminescence assay; type: functional
SK-MEL-2 = assay: Antiproliferative activity against human SK-MEL-2 cells assessed as growth inhibition incubated for 72 hrs by luminescence assay; type: functional
[7] = Metabolic stability in dog liver microsomes assessed as intrinsic clearance incubated for 10 mins by LC-MS/MS analysis; type: ADME, Canis lupus familiaris, Microsome; conditions: read-out: CLH
[8] = Metabolic stability in rat plasma assessed as half life at 100 uM measured upto 120 mins by LC-MS/MS analysis; type: ADME, cell-free
IGROV-1 = assay: Antiproliferative activity against human IGROV-1 cells assessed as growth inhibition incubated for 72 hrs by luminescence assay; type: functional
RXF 393 = assay: Antiproliferative activity against human RXF 393 cells assessed as growth inhibition incubated for 72 hrs by luminescence assay; type: functional
NCI-H460 = assay: Antiproliferative activity against human NCI-H460 cells assessed as growth inhibition incubated for 72 hrs by luminescence assay; type: functional
SW-620 = assay: Antiproliferative activity against human SW-620 cells assessed as growth inhibition incubated for 72 hrs by luminescence assay; type: functional
A549 = assay: Antiproliferative activity against human A549 cells assessed as growth inhibition incubated for 72 hrs by luminescence assay; type: functional
HCT-116 = assay: Antiproliferative activity against human HCT-116 cells assessed as growth inhibition incubated for 72 hrs by luminescence assay; type: functional
MDA-MB-435 = assay: Antiproliferative activity against human MDA-MB-435 cells assessed as growth inhibition incubated for 72 hrs by luminescence assay; type: functional
[9] = Volume of distribution at steady state in Sprague-Dawley rat at 1 mg/kg, iv measured up to 24 hrs by LC-MS/MS analysis; type: ADME, organism-based; conditions: in vivo, read-out: Vdss
Histone deacetylase 1 = Histone deacetylase 1 (Homo sapiens, UniProt Q13547); assay: Inhibition of HDAC1 (unknown origin) using p53 (379 to 382 residues) (RHKK(Ac-AMC) as fluorogenic substrate incubated for 1 hrs by fluorescence based assay
COLO 205 = assay: Antiproliferative activity against human COLO 205 cells assessed as growth inhibition incubated for 72 hrs by luminescence assay; type: functional
OVCAR-4 = assay: Antiproliferative activity against human OVCAR-4 cells assessed as growth inhibition incubated for 72 hrs by luminescence assay; type: functional
[10] = Metabolic stability in monkey plasma assessed as parent compound remaining at 100 uM measured after 2 hrs by LC-MS/MS analysis; type: ADME, cell-free, Macaca mulatta; conditions: rhesus monkey, read-out: Stability
[11] = Half life in Sprague-Dawley rat at 1 mg/kg, iv measured up to 24 hrs by LC-MS/MS analysis; type: ADME, organism-based; conditions: in vivo
[12] = Metabolic stability in monkey liver microsomes assessed as half life incubated for 10 mins by LC-MS/MS analysis; type: ADME, Macaca mulatta, Microsome; conditions: rhesus monkey
ACHN = assay: Antiproliferative activity against human ACHN cells assessed as growth inhibition incubated for 72 hrs by luminescence assay; type: functional
LOX IMVI = assay: Antiproliferative activity against human LOX IMVI cells assessed as growth inhibition incubated for 72 hrs by luminescence assay; type: functional
[13] = Metabolic stability in human liver microsomes assessed as intrinsic clearance incubated for 10 mins by LC-MS/MS analysis; type: ADME, Microsome; conditions: read-out: CLH
UO-31 = assay: Antiproliferative activity against human UO-31 cells assessed as growth inhibition incubated for 72 hrs by luminescence assay; type: functional

Chain of Histone deacetylase 1 (Q13547 whole entry, the tested form may be a part): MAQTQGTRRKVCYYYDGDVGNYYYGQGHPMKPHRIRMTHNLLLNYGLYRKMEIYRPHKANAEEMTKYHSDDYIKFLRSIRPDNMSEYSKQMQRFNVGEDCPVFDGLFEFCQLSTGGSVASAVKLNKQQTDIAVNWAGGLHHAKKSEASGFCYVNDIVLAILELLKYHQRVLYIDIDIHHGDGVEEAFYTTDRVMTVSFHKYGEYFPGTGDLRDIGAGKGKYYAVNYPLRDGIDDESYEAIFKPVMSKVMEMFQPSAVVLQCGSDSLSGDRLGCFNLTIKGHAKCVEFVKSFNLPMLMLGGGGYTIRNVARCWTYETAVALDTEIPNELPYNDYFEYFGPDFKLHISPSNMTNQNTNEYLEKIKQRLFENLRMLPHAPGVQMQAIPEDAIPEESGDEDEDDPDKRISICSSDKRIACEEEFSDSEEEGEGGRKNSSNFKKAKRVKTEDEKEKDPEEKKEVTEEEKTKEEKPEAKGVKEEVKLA

Compound: Cc1cc(Nc2nc(SCc3ccc(C(=O)Nc4ccc(F)cc4N)cc3)nn3cccc23)n[nH]1
- GI50 (CCRF-CEM): 411 nM
- GI50 (EKVX): 919 nM
- GI50 (HCT-15): 424 nM
- GI50 (UACC-257): 3690 nM
- GI50 (SF-539): 282 nM
- GI50 (SK-MEL-5): 334 nM
- F [1]: 7.3%
- half-life at 100 µM [2]: 5.5 h
- GI50 (NCI-H226): 2700 nM
- pKd [3]: 6.74
- GI50 (NCI/ADR-RES): 1980 nM
- Activity [4]: Active
- GI50 (SN12C): 1250 nM
- GI50 (SNB-19): 536 nM
- clearance [5]: 24.2 mL/min/kg
- GI50 (MOLT-4): 508 nM
- GI50 (SF-295): 354 nM
- GI50 (SR): 68 nM
- AUCt [6]: 52.1 ng·h/mL
- GI50 (TK-10): 1210 nM
- GI50 (DU-145): 461 nM
- GI50 (HL-60): 268 nM
- GI50 (Malme-3M): 1830 nM
- GI50 (KM12): 284 nM
- GI50 (SK-MEL-2): 617 nM
- microsomal CLint [7]: 26.6 µL/min/mg
- half-life at 100 µM [8]: 8.58 h
- GI50 (IGROV-1): 558 nM
- GI50 (RXF 393): 301 nM
- GI50 (NCI-H460): 395 nM
- GI50 (SW-620): 426 nM
- GI50 (A549): 886 nM
- GI50 (HCT-116): 494 nM
- GI50 (MDA-MB-435): 36.1 nM
- Vd [9]: 1.06 L/kg
- pIC50 (Histone deacetylase 1): 6.39
- GI50 (COLO 205): 296 nM
- GI50 (OVCAR-4): 1660 nM
- remaining at 2 h, 100 µM [10]: 82.4%
- t1/2 [11]: 0.303 h
- half-life [12]: 0.463 h
- GI50 (ACHN): 1240 nM
- GI50 (LOX IMVI): 665 nM
- microsomal CLint [13]: 20.9 µL/min/mg
- GI50 (UO-31): 1330 nM
